Assay results taken from ChEMBL document CHEMBL2384983, “A cyclodextrin-capped histone deacetylase inhibitor” (Bioorg Med Chem Lett, 2013).
pIC50: −log10 of the molar value.

Assays:
Histone deacetylase 8 = biological target: T1, Histone deacetylase 8 (Homo sapiens, UniProt Q9BY41); assay: Inhibition of HDAC8 (unknown origin)
T1 sequence (Q9BY41 whole entry): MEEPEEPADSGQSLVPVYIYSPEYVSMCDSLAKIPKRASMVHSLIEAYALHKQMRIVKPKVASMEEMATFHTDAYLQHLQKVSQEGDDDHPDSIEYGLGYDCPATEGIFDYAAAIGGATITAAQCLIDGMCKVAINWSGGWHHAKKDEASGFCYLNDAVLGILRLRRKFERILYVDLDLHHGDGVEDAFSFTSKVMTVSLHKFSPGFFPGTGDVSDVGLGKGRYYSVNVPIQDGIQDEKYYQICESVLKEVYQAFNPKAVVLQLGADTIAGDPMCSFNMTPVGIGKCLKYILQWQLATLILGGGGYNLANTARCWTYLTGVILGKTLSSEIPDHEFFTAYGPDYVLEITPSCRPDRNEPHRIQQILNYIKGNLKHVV

[1] = biological target: T2, Protein deacetylase HDAC6 (Homo sapiens, UniProt Q9UBN7); assay: Inhibition of HDAC6 (unknown origin)
T2 sequence (Q9UBN7 whole entry): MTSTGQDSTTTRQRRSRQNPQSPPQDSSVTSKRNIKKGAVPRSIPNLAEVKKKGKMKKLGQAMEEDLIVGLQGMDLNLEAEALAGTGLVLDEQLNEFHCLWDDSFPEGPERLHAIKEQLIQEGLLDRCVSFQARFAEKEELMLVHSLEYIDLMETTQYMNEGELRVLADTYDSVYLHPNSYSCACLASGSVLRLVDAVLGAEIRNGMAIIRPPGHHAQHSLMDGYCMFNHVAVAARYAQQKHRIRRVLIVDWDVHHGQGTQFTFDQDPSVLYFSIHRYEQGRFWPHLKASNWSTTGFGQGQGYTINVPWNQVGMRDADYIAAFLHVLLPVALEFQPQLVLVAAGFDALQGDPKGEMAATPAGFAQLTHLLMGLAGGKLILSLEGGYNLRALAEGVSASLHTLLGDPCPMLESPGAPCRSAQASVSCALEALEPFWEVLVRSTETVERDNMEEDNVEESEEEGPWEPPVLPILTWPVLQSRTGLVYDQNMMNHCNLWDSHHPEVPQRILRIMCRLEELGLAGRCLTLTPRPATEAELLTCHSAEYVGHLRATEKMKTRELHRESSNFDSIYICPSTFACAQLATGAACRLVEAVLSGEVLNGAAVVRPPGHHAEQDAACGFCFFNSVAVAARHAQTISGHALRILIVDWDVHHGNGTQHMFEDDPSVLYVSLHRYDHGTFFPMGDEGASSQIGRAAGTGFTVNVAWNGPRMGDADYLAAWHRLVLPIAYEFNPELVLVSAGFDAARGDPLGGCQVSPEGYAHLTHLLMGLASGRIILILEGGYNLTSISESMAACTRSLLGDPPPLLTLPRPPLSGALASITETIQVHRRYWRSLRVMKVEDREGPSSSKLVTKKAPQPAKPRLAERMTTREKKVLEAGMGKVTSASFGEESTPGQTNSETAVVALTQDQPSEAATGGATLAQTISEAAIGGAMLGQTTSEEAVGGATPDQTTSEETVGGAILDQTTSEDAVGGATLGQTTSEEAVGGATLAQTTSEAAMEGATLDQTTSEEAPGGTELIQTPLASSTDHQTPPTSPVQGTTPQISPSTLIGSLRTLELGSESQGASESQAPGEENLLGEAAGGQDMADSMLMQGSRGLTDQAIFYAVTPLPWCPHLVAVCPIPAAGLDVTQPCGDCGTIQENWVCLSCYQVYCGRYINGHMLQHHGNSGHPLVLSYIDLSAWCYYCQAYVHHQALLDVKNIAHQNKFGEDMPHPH

Histone deacetylase 3 = Histone deacetylase 3 (Homo sapiens, UniProt O15379); assay: Inhibition of HDAC3 (unknown origin)
Histone deacetylase 1 = Histone deacetylase 1 (Homo sapiens, UniProt Q13547); assay: Inhibition of HDAC1 (unknown origin)
Histone deacetylase 2 = Histone deacetylase 2 (Homo sapiens, UniProt Q92769); assay: Inhibition of HDAC2 (unknown origin)
Sequence of Histone deacetylase 2 (Q92769 whole entry): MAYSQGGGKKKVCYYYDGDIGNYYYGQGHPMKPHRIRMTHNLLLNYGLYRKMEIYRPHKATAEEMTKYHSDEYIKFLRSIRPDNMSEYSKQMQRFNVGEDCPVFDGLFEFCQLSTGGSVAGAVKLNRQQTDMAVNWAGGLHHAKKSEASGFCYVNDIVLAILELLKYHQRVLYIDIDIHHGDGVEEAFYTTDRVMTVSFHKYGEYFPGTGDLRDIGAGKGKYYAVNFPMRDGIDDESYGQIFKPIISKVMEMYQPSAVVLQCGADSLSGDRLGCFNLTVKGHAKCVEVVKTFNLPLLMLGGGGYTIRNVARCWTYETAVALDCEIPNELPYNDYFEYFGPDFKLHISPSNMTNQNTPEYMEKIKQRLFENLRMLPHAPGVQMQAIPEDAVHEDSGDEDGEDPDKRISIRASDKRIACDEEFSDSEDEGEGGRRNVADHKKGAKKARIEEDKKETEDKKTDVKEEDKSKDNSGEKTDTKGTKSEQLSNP

Sequence of Histone deacetylase 1 (Q13547 whole entry): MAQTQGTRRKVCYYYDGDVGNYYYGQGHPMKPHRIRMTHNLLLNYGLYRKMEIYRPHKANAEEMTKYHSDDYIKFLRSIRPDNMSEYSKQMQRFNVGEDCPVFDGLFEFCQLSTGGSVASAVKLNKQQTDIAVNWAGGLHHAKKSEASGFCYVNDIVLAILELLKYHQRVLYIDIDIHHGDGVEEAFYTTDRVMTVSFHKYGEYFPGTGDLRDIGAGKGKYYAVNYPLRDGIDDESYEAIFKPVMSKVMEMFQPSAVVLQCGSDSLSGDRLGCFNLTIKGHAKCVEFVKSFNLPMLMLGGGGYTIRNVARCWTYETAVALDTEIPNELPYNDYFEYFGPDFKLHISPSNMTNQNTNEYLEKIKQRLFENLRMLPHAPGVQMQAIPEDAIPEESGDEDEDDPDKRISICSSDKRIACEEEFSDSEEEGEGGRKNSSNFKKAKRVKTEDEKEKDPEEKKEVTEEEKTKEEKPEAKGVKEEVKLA
Sequence of Histone deacetylase 3 (O15379 whole entry): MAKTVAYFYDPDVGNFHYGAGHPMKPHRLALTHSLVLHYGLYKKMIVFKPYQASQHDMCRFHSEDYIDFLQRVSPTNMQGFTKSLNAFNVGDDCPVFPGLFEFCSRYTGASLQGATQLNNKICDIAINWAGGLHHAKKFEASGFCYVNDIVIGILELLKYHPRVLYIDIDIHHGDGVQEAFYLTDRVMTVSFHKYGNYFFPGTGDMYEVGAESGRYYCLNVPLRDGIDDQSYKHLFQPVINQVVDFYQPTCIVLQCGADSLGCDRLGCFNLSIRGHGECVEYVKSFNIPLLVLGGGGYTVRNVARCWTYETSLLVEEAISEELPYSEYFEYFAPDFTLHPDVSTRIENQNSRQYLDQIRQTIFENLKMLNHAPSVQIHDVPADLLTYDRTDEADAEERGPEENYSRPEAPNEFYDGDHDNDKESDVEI

pIC50 (Histone deacetylase 8): 5.22 | pIC50 [1]: 6.92 | pIC50 (Histone deacetylase 3): 5.80 | pIC50 (Histone deacetylase 1): 6.20 | pIC50 (Histone deacetylase 2): 5.92
SMILES: O=C(CCCCCCC(=O)NC[C@H]1O[C@@H]2O[C@H]3[C@H](O)[C@@H](O)[C@@H](O[C@H]4[C@H](O)[C@@H](O)[C@@H](O[C@H]5[C@H](O)[C@@H](O)[C@@H](O[C@H]6[C@H](O)[C@@H](O)[C@@H](O[C@H]7[C@H](O)[C@@H](O)[C@@H](O[C@H]8[C@H](O)[C@@H](O)[C@@H](O[C@H]1[C@H](O)[C@H]2O)O[C@@H]8CO)O[C@@H]7CO)O[C@@H]6CO)O[C@@H]5CO)O[C@@H]4CO)O[C@@H]3CO)NO
